Measurements as given in PMC5784245, “An Optimized Synthetic-Bioinformatic Natural Product Antibiotic Sterilizes Multidrug-Resistant Acinetobacter baumannii-Infected Wounds” (mSphere, 2018).
≈ marks a conversion by molar mass, not a printed value. Non-standard residues stand in square brackets, D forms with d. Residues, ends and D or L forms follow the SMILES beside them. dOrn = NCCC[C@@H](N)C(=O)O; Orn = NCCC[C@H](N)C(=O)O

Legend:
[1] = system: MDR A. baumannii strain AB5075; experiment: Rat cutaneous wound model, efficacy; type: in vivo, Sprague-Dawley rats; conditions: rat wound infected with AB5075 (500 CFU)
Method: (§1) The rat cutaneous wound model was used as described previously ([21]). Protocols for animal studies were approved by the Rutgers University Institutional Animal Care and Use Committee. All animals were humanely euthanized at the study endpoint by following the AVMA Guidelines for the Euthanasia of Animals. Immunocompetent Sprague-Dawley female rats (~200 g) were anesthetized by intraperitoneal injection of 100 mg/kg ketamine plus 10 mg/kg xylazine. Using a 1.0-cm-diameter disposable biopsy punch, two symmetrical wounds were created on the dorsum of each rat. A circular gauze dressing 8 mm in diameter was saturated overnight with either vehicle or 4F at 10 mg/ml in sterile centrifuge tubes. To assess tolerability, the rats were weighed daily and observed for wound healing, behavior changes, and visible adverse drug effects for 5 days. To assess efficacy, A. baumannii strain AB5075 was grown overnight and the culture was diluted to provide the challenge inoculum (500 CFU) as 50 μl of bacterial suspension in 0.9% (wt/vol) NaCl. A circular gauze dressing 8 mm in diameter was saturated overnight with vehicle, tetracycline, or 4F at 10 mg/ml in sterile centrifuge tubes. These saturated dressings were topically applied to the wound site with sterile forceps twice daily, starting at 30 min postinoculation, for 6 days. Rats were observed twice daily for morbidity and possible signs of acute toxicity. Two and four independent cutaneous wounds were tested in tolerability and efficacy assessments, respectively.

[2] = system: MDR A. baumannii strain AB5075; experiment: microbe, parasite or virus in culture; type: cell-based, Acinetobacter baumannii
Method: (§2) Standard susceptibility assays were performed in LB medium in 96-well microtiter plates to determine the MIC by the broth microdilution method in accordance with protocols recommended by Clinical and Laboratory Standards Institute ([35]). Cytotoxicity was assessed using human HT-29 cells based on a similar broth microdilution method ([36]). All assays were performed in duplicate. For the cytotoxicity assay, 5,000 HT-29 cells per well were seeded into a microtiter plate and cultured for 24 h at 37°C in a 5% CO2 atmosphere. Peptides were supplemented at concentrations ranging from 128 to 0.5 μg/ml, and the cells were incubated for another 20 h. Growth media were removed, 3-(4,5-dimethylthiazol-2-yl)-2,5-diphenyltetrazolium bromide (MTT) was added to all wells (220 μl per well at 0.5 mg/ml), the mixture was incubated for 4 h, and then the media were discarded. Cell viability was determined by visual inspection.

A. baumannii [3] = experiment: Membrane depolarization assay (DiBAC4); type: cell-based, Acinetobacter baumannii; conditions: 4× MIC (8 μg/ml); DiBAC4 fluorescence at endpoint of assay; polymyxin at 4× MIC
Method: In a membrane depolarization assay ([31]), A. baumannii colonies were scraped off an agar plate and suspended in LB to optical density at 600 nm (OD600) of 0.5 to 0.6. The resulting suspension (1.8 ml) was mixed 9:1 with DiBAC4 (20 μg/ml), incubated at room temperature for 5 min, and monitored at 2-s intervals (excitation/emission, 492/515 nm) for 2 min. Various solutions were added (10 μl) while the fluorescence signal was continually being monitored. Paenimucillin C was tested at final concentrations of 2× and 4× its MIC, and polymyxin B and DMSO were used as positive and negative controls, respectively. The treated cultures were then monitored at 2-s intervals for another 5 min. Pore formation assays ([32]) were performed in the same way, except that Triton X-100 was used as the positive control at a final concentration of 0.25% (wt/vol).

A. baumannii [4] = experiment: Pore formation assay (SYTOX); type: cell-based, Acinetobacter baumannii; conditions: 4× MIC (8 μg/ml), SYTOX fluorescence
[5] = system: A. baumannii clinical isolate 1795; type: cell-based, Acinetobacter baumannii; conditions: clinical isolate 1795, 24 h
Method: (§3) Wang resins were purchased from Matrix Innovation. Reagents for peptide synthesis were purchased from P3 BioSystems, Chempep, and Chem-Impex International. The fluorescent dyes DiBAC4 and SYTOX were purchased from Thermo Fisher Scientific, and media were prepared from premixed powders: brain heart infusion for S. sobrinus and L. rhamnosus (Hardy Diagnostics), yeast extract-peptone-dextrose for C. albicans, lysogeny broth (LB) for all other bacteria (BD Biosciences), and McCoy’s 5A medium with 10% fetal bovine serum for HT-29 cells (American Type Culture Collection). All other chemicals and consumables were purchased from Sigma-Aldrich and VWR International. Paenimucillin 4F for in vivo studies was purchased from Ontores Biotechnologies as a high-performance liquid chromatography (HPLC)-purified peptide and used as is. Dye assays were performed in a Gen5 microtiter plate reader (Biotek Instruments). Liquid chromatography-mass spectrometry (LC-MS) analyses were performed by using an Acquity system (Waters Corporation).
as §2

[6] = system: A. baumannii clinical isolate S3; type: cell-based, Acinetobacter baumannii; conditions: clinical isolate S3, 24 h
Method: as §3, §2

[7] = system: A. baumannii clinical isolate S5; type: cell-based, Acinetobacter baumannii; conditions: clinical isolate S5, 24 h
Method: as §3, §2

[8] = system: A. baumannii clinical isolate 1788; type: cell-based, Acinetobacter baumannii; conditions: clinical isolate 1788, 24 h
Method: as §3, §2

[9] = system: A. baumannii clinical isolate 1790; type: cell-based, Acinetobacter baumannii; conditions: clinical isolate 1790, 24 h
Method: as §3, §2

[10] = system: A. baumannii clinical isolate 1797; type: cell-based, Acinetobacter baumannii; conditions: clinical isolate 1797, 24 h
Method: as §3, §2

[11] = system: A. baumannii clinical isolate 1791; type: cell-based, Acinetobacter baumannii; conditions: clinical isolate 1791, 24 h
Method: as §3, §2

[12] = Rat cutaneous wound model, tolerability; type: in vivo, Sprague-Dawley rats; conditions: uninfected wounded rats, topical 10 mg/ml
Method: as §1, with “Rats were observed twice daily for morbidity and possible signs of acute toxicity. Two and four independent cutaneous wounds were tested in tolerability and efficacy assessments, respectively.” left out

Enterococcus faecalis = type: cell-based; conditions: 24 h
Method: as §3, §2

Enterococcus faecium = type: cell-based; conditions: 24 h
Method: as §3, §2

Enterobacter cloacae = type: cell-based; conditions: 24 h
Method: as §3, §2

Bacillus subtilis = type: cell-based; conditions: 24 h
Method: as §3, §2

Pseudomonas aeruginosa = type: cell-based; conditions: 24 h
Method: as §3, §2

Staphylococcus aureus = type: cell-based; conditions: 24 h
Method: as §3, §2

Lactobacillus rhamnosus = type: cell-based; conditions: 24 h
Method: as §3, §2

Streptococcus sobrinus = type: cell-based; conditions: 24 h
Method: as §3, §2

Acinetobacter baumannii = type: cell-based; conditions: 24 h
Method: as §3, §2

Klebsiella pneumoniae = type: cell-based; conditions: 24 h
Method: as §3, §2

C. albicans = experiment: Toxicity assessment, MIC against C. albicans; type: cell-based, Candida albicans; conditions: Brady lab strain; yeast extract-peptone-dextrose; surrogate for cytotoxicity; duplicate
Method: as §3, with “Liquid chromatography-mass spectrometry (LC-MS) analyses were performed by using an Acquity system (Waters Corporation).” left out
Standard susceptibility assays were performed in LB medium in 96-well microtiter plates to determine the MIC by the broth microdilution method in accordance with protocols recommended by Clinical and Laboratory Standards Institute ([35]). Cytotoxicity was assessed using human HT-29 cells based on a similar broth microdilution method ([36]). […] Cell viability was determined by visual inspection.

Row | Compound | MIC for A. baumannii clinical isolate 1795 [5] [µg/mL] | MIC for A. baumannii clinical isolate S3 [6] [µg/mL] | MIC for A. baumannii clinical isolate S5 [7] [µg/mL] | MIC for A. baumannii clinical isolate 1788 [8] [µg/mL] | MIC for A. baumannii clinical isolate 1790 [9] [µg/mL] | MIC for A. baumannii clinical isolate 1797 [10] [µg/mL] | MIC for A. baumannii clinical isolate 1791 [11] [µg/mL] | MIC Enterococcus faecalis (Enterococcus faecalis) [µg/mL] | MIC Enterococcus faecium (Enterococcus faecium) [µg/mL] | MIC Enterobacter cloacae (Enterobacter cloacae) [µg/mL] | MIC Bacillus subtilis (Bacillus subtilis) [µg/mL] | MIC Pseudomonas aeruginosa (Pseudomonas aeruginosa) [µg/mL] | MIC Staphylococcus aureus (Staphylococcus aureus) [µg/mL] | MIC Lactobacillus rhamnosus (Lactobacillus rhamnosus) [µg/mL] | MIC Streptococcus sobrinus (Streptococcus sobrinus) [µg/mL] | MIC Acinetobacter baumannii (Acinetobacter baumannii) [µg/mL] | MIC Klebsiella pneumoniae (Klebsiella pneumoniae) [µg/mL] | MIC, toxicity assessment, C. albicans (C. albicans) [µg/mL] | also measured
1 | CN(C)[C@@H]1C(O)=C(C(N)=O)C(=O)[C@@]2(O)C(O)=C3C(=O)c4c(O)cccc4[C@@](C)(O)[C@H]3C[C@@H]12 [tetracycline, reference compound] |  |  |  |  |  |  |  |  |  |  |  |  |  |  |  |  |  |  | bacterial burden of wound, day 3 ([1]; topical 10 mg/ml twice daily from 0.5 h postinoculation, four wounds, ±1 SD): 6.4 ± 0.31 log CFU; MIC ([2]; Acinetobacter baumannii, MDR strain AB5075, read-out: in vitro MIC, A. baumannii AB5075): 0.25 µg/mL (≈ 0.563 µM)
2 | CC[C@@H](C)[C@@H](NC(=O)[C@@H](NC(=O)[C@H](CO)NC(=O)[C@H](Cc1ccccc1)NC(=O)[C@@H](CCCN)NC(=O)[C@H](CO)NC(=O)[C@H](CO)NC(=O)[C@@H](Cc1ccccc1)NC(=O)[C@@H](CO)NC(=O)[C@H](NC(=O)[C@@H](CCCN)NC(=O)[C@@H](Cc1ccccc1)NC(C)=O)[C@H](C)CC)C(C)C)C(=O)N[C@@H](CCCN)C(=O)O [4F, paenimucillin C] (Ac-[dF][dOrn][dI][dS][dF]SS[dOrn]FSV[dI][Orn]-OH) | 4 | 4 | 4 | 4 | 4 | 4 | 2 | 64 (≈ 42.2 µM) | 32 (≈ 21.1 µM) | 32 (≈ 21.1 µM) | 16 (≈ 10.5 µM) | 128 (≈ 84.3 µM) | 32 (≈ 21.1 µM) | 16 (≈ 10.5 µM) | 16 (≈ 10.5 µM) | 2 (≈ 1.32 µM) | 4 (≈ 2.64 µM) | 128 (≈ 84.3 µM) | membrane depolarization relative to polymyxin (A. baumannii [3]): ~ 25%; pore formation relative to Triton X-100 (A. baumannii [4]): ~ 75%; weight loss ([12]; 5 days, within normal range due to analgesia, two wounds): ≤ 5%; acute toxicity and change in behavior ([12]; observed 5 days): Neither acute toxicity nor any change in behavior was seen; wound sterilization after 1 day ([1]; topical 10 mg/ml twice daily): completely sterilized the wounds; bacterial burden throughout the 5-day study ([1]; topical 10 mg/ml twice daily, P < 0.00001): 0 CFU; in vitro MIC, A. baumannii AB5075 ([2]; MDR strain AB5075, 24 h): 1 µg/mL
3 | CC[C@@H](C)[C@@H](NC(=O)[C@@H](NC(=O)[C@H](CO)NC(=O)[C@H](Cc1c[nH]c2ccccc12)NC(=O)[C@@H](CCCN)NC(=O)[C@H](CO)NC(=O)[C@H](CO)NC(=O)[C@@H](Cc1c[nH]c2ccccc12)NC(=O)[C@@H](CO)NC(=O)[C@H](NC(=O)[C@@H](CCCN)NC(=O)[C@@H](Cc1ccccc1)NC(C)=O)[C@H](C)CC)C(C)C)C(=O)N[C@@H](CCCN)C(=O)O [4W] (Ac-[dF][dOrn][dI][dS][dW]SS[dOrn]WSV[dI][Orn]-OH) | 2 | 4 | 4 | 2 | 0.5 | 2 | 0.5 | 4 (≈ 2.51 µM) | 32 (≈ 20.1 µM) | 2 (≈ 1.25 µM) | 1 (≈ 0.627 µM) | 16 (≈ 10 µM) | 4 (≈ 2.51 µM) | 2 (≈ 1.25 µM) | 2 (≈ 1.25 µM) | 1 (≈ 0.627 µM) | 2 (≈ 1.25 µM) | 128 (≈ 80.2 µM) | 
